We go through four molecules from article PMC6136360, “Novel group of tyrosyl-DNA-phosphodiesterase 1 inhibitors based on disaccharide nucleosides as drug prototypes for anti-cancer therapy” (Journal of Enzyme Inhibition and Medicinal Chemistry, 2018).

Data set [1] addresses T1, TDP1 (Homo sapiens, UniProt Q9NUW8).
T1 construct: made in house; host or cells: E. coli
The data set is described as follows: Real-time fluorescence detection of TDP1 activity, single-stranded FAM/BHQ biosensor. The note with it: for Inhibitory effect on TDP1 activity (in words): single-stranded fluorescent biosensor, primary screening. The data set is classed as biochemical. The procedure:
(§1) Conditions and details for our real-time detection of TDP1 activity using the single-stranded and hairpin fluorescent biosensors were reported in our previous work[47]. Briefly, the approach consists in fluorescence intensity measurement of the reaction of quencher removal from the fluorophore-quencher coupled DNA-oligonucleotide catalysed by TDP1 in the presence of inhibitor and in the absence of it (the control samples contained 1% DMSO). Reaction mixtures (200 µl) contained TDP1 buffer (50 mM Tris-HCl, pH 8.0, 50 mM NaCl, 7 mM β-mercaptoethanol), oligonucleotide (50 nM substrate of TDP1), testable inhibitor and purified TDP1 (1.5 nM). The reactions were incubated at a constant temperature of 26 °C in a POLARstar OPTIMA fluorimeter, BMG LABTECH, GmbH, to measure fluorescence every 55 s (Ex485/Em520 nm) during the linear phase (here data from 0 to 8 min). The average values of half maximal inhibitory concentration (IC50) were determined using an eleven-point concentration response curve in three independent experiments and calculated using MARS Data Analysis 2.0 (BMG LABTECH).
To discover inhibitors of TDP1 we recently developed original single-stranded and hairpin fluorophore–quencher coupled DNA-biosensors for real-time measurement of TDP1 cleavage activity. The single-stranded substrate is a 16-mer oligonucleotide containing both 5′-FAM fluorophore donor and a quenching 3′-BHQ moiety (Figure 1(A)). When the quencher is removed by TDP1, the fluorescence intensity increases and can be measured by fluorimeter (TDP1 catalysed reaction on biosensor is shown in Figure 3(A). Fluorescence intensity declines in the presence of inhibitor, the resulting curves of the dependence of TDP1 residual activity as a function of the concentration of inhibitors were obtained using 4-parameter logistic regression fit, which was used to calculate IC50 values[47]^,[58].
For primary screening, the effect of a large group of disaccharide nucleosides and their hydrophobic derivatives on human recombinant TDP1 activity has been evaluated by fluorescent method on a single-stranded substrate described above.

A further data set has as its system PARP1. Details: method as in PMID 24079274. The following applies: cited from earlier work.
Data set [2] deals with WI-38 cell line (noncancerous fibroblasts derived from lung tissue). The data set is described as follows: MTT test, cytotoxicity and combination with topotecan, WI-38. The following applies: WI-38 non-cancerous cell line. The data set is classed as cell-based, human. The procedure:
(§2) Tumour cell line A549 (adenocarcinomic human alveolar basal epithelial cells) and noncancerous cell line WI-38 (fibroblasts derived from lung tissue of a 3 months gestation […] fetus) were used in cell-based experiments to determine the cytotoxicity of inhibitors and their effect on antitumour drug topotecan using standard MTT test[48]. Cells were incubated in Iscove’s Modified Dulbecco’s Medium (IMDM) supplemented with 10% fetal bovine serum and 40 µg/ml gentamicin, 10 U/ml penicillin, […], 0.25 µg/ml amphotericin at 37 °C and 5% CO2 for 24 h in a CO2 incubator; the optical density of the final solution was measured in the wells of the microplate at 570 nm and 620 nm wavelengths using a MultiScan FC (Thermo Scientific) microplate reader.
(§3) To study the effect of inhibitors on the cytotoxic effect of a well-known antitumour drug, the topotecan of the manufacturer “ACTAVIS GROUP PTC ehf.” was used. First of all, the 50% cytotoxic concentration (CC50) for topotecan and each inhibitor were determined to produce a defined single-agent effect. Second, three independent MTT-tests were performed with each inhibitor in combination with topotecan. Then, the synergistic coefficient (SC) was calculated according to the following formula (2)[49]: (2) SC= CC50 tpc,(+I)/CC50 tpc+CC50 I, (+tpc)/CC50 I,
(§4) CC50 tpc,(+I) and CC50 I,(+tpc) are the concentrations of topotecan and inhibitor used in combination to achieve 50% drug effect. CC50 tpc and CC50 I are the concentrations for single agents to achieve the same effect. SC values of less than, equal to, or more than 1 indicates synergy, additivity, and antagonism, respectively. The results were calculated and statistically processed in Microsoft Excel.
Background: Tetrazolium assays rely on reduction of a dye to a coloured formazan, in cell work by metabolically active cells.

For data set [3], the target named is T2, SCAN1 (mutant form of TDP1 with H493R substitution) (Homo sapiens, UniProt Q9NUW8, H493R).
T2 construct: made in house; host or cells: E. coli
T2 sequence (Q9NUW8 whole entry H493R): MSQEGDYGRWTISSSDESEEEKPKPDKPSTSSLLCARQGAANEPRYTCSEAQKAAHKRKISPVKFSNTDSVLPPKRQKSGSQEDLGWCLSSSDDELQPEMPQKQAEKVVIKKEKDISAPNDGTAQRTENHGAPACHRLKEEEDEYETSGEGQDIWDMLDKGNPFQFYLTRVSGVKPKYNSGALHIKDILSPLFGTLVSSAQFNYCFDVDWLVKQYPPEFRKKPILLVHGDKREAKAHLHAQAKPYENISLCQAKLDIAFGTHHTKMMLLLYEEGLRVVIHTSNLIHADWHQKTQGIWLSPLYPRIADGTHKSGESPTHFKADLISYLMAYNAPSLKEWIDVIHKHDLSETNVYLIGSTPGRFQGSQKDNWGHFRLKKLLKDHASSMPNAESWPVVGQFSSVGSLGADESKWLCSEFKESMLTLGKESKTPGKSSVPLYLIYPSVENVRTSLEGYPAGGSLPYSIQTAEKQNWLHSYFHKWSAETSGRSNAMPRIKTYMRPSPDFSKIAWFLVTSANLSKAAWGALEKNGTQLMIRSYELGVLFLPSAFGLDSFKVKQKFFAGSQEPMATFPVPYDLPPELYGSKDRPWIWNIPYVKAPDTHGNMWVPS
As to the kind of experiment: Fluorescence real-time assay on mutant TDP1 (SCAN1), single-stranded oligonucleotide. The data set is classed as biochemical.
Excerpt: The recombinant tyrosyl-DNA phosphodiesterase 1 and the mutant form of TDP1 with substitution (H493R) were expressed in the E. coli system (plasmids pET16B-TDP1 and pET16B-SCAN1 were provided by Dr. K.W. Caldecott, University of Sussex, United Kingdom and by Dr. S. El-Khamisy, University of Sheffield, United Kingdom) and purified according to the previously described technique.
as §1
The IC50 values obtained by the fluorescence real-time assay on a single-stranded oligonucleotide (section 3.1) were higher than 100 μM.

For data set [4], the system named is A-549 cell line (adenocarcinomic human alveolar basal epithelial cells). As to the kind of experiment: MTT test, cytotoxicity and combination with topotecan, A-549. The following applies: A-549 cells; for Synergistic coefficient (SC) with topotecan: MTT, inhibitor in combination with topotecan, SC < 1 indicates synergy; for Effect on cytotoxic effect of topotecan (in words): non-toxic inhibitor concentrations. Format: cell-based. How it is done: as §2, §3, §4

Data set [5] deals with T1, TDP1. The data set is described as follows: Steady-state kinetic analysis of TDP1 reaction, double-stranded (hairpin) substrate. Format: biochemical. The note with it: for Ki: Cornish-Bowden method, read-out: Inhibition constant, KI. The procedure: (§5) To determine the kinetic parameters: apparent maximum rate of enzymatic reaction (Vmax), Michaelis constant (KM), constant of inhibition (KI), and possible inhibition mechanism, steady-state kinetic experiments were carried out at five fixed concentrations of substrate with variation of inhibitor concentrations. The standard reaction mixtures (200 μl) contained 50 nM, 100 nM, 200 nM, 500 nM or 1000 nM substrate, testable inhibitor, 1.5 nM recombinant human TDP1 and reaction buffer components (50 mM Tris-HCl, pH 8.0, 50 mM NaCl, 7 mM β-mercaptoethanol). After addition of the enzyme, the reaction mixtures were incubated at a constant temperature of 26 °C and measured in a POLARstar OPTIMA fluorimeter, BMG LABTECH, GmbH, to measure fluorescence every 55 s (Ex485/Em520 nm) during the linear phase (data from 0 to 8 min). The initial data (kinetic curves) were obtained in three independent experiments and statistically processed in software OriginPro 8.6.0.
(§6) Values of the inhibition constant (KI) were determined using Cornish–Bowden method. Similar experiments were performed for all seven tested inhibitors on two types of DNA substrates, and the results are shown in Table 4.

Data set [6] concerns the target T1, TDP1. As to the kind of experiment: Fluorescence anisotropy assay of TDP1-DNA substrate complex. Format: binding. The following applies: 3 nM single-strand oligonucleotide without quencher, 50 nM TDP1. How it is done: Fluorescence anisotropy was measured by using a fluorescent single-strand DNA-oligonucleotide (3 nM) without quencher at the 3′-end in the presence of the inhibitor in different concentrations (Fluorescein control, CFlu = 10^−9 M). Reaction mixtures (200 µl) contained TDP1 buffer (50 mM Tris-HCl, pH 8.0, 50 mM NaCl, 7 mM β-mercaptoethanol), a single-strand DNA-oligonucleotide without quencher (3 nM substrate of TDP1), a testable inhibitor and the purified TDP1 (50 nM). The reactions were incubated at a constant temperature of 26 °C in a POLARstar OPTIMA fluorimeter, BMG LABTECH, GmbH, to measure fluorescence anisotropy every 55 s (Ex482/Em530 nm) during the linear phase (from 0 to 8 min) in two independent experiments.
Fluorescence anisotropy (r) was calculated by using the Equation (1): (1) r = (III–I⊥)/(III+ 2I⊥)
The dependence of the anisotropy on the concentration of the inhibitor was determined using a six-point response curve in two independent experiments and calculated using MARS Data Analysis 2.0 (BMG LABTECH).
To obtain some information about interaction of disaccharide nucleosides with TDP1, anisotropy of the fluorescent DNA substrate was measured. We used single-stranded oligonucleotide without a quencher at the 3′-end in the presence of testable inhibitors at different concentrations.
(Fluorescence polarisation rises when a labelled molecule tumbles more slowly, as on binding a larger partner.)

In data set [7] the target is T1, TDP1. As to the kind of experiment: Steady-state kinetic analysis of TDP1 reaction, single-stranded substrate. The data set is classed as biochemical. The following applies: for Ki: Cornish-Bowden method, read-out: Inhibition constant, KI. How it is done: as §5
Vmax and KM decrease proportionally (Figure 6(A,B)), which corresponds to the uncompetitive type of inhibition, according to the general equation of the rate of product formation in the Michaelis–Menten kinetics.
as §6

T1 sequence (Q9NUW8 whole entry): as the sequence (Q9NUW8 whole entry H493R) above, with R493H counted along it

With `Cc1cn([C@H]2C[C@H](O[C@@H](C=O)O[C@@H](C=O)CO)[C@@H](CO)O2)c(=O)[nH]c1=O` [Compound 29], the “Inhibitory effect on TDP1 activity (in words)” value on TDP1 [1] is on record as “did not lead to the noticeable inhibitory activity”. In addition, in the data set on PARP1, the IC50 is 25000 ± 3000 nM.
Consider `O=C(OC[C@H]1O[C@@H](O[C@H]2C[C@H](n3cc(I)c(=O)[nH]c3=O)O[C@@H]2CO)[C@H](OC(=O)c2ccccc2)[C@@H]1OC(=O)c1ccccc1)c1ccccc1` [Compound 41], for which the IC50 on TDP1 [1] (single-stranded fluorescent biosensor 50 nM, TDP1 1.5 nM, 26 °C, read-out: IC50 (half-maximal inhibitory concentration) of TDP1 activity) amounted to 2800 ± 200 nM. Moreover, in data set [2], the “Synergy with topotecan (in words)” value was “demonstrated synergy with topotecan”. The same molecule gave an IC50 in data set [3] of more than 100000 nM. Besides, in data set [4], the “Synergistic coefficient (SC) with topotecan” value is “less than or equal to 0.7” and the “Effect on cytotoxic effect of topotecan (in words)” value is recorded as “significant increase of cytotoxic effect of topotecan”. At TDP1 [5], the Type of inhibition result was “Uncompetitive” and the Ki worked out at 2100 ± 500 nM. Also, at TDP1 [6], the “Change of fluorescence anisotropy with inhibitor concentration” value is listed as “anisotropy remained unchanged”. Further, on TDP1 [7], the Type of inhibition result is recorded as “Uncompetitive” and the Ki is 600 ± 300 nM.
Turning to `CC(C)C(=O)Nc1nc2c(ncn2[C@@H]2O[C@H](CO)[C@@H](O)[C@H]2O[C@@H]2O[C@H](COC(=O)c3ccccc3)[C@@H](OC(=O)c3ccccc3)[C@H]2OC(=O)c2ccccc2)c(=O)[nH]1` [Compound 10], the “Synergy with topotecan (in words)” value in data set [2] is “demonstrated synergy with topotecan”. Also, in data set [3], the IC50 was more than 100000 nM. In addition, in data set [4], the “Synergistic coefficient (SC) with topotecan” value is on record as “less than or equal to 0.7” and the “Effect on cytotoxic effect of topotecan (in words)” value is “significant increase of cytotoxic effect of topotecan”. On TDP1 [5], the Type of inhibition entry is reported as “Mixed” and the Ki is 3100 ± 300 nM. At TDP1 [6], the “Change of fluorescence anisotropy with inhibitor concentration” value is recorded as “significant decrease in the anisotropy”. Also, at TDP1 [7], the Type of inhibition entry is “Mixed” and the Ki worked out at 1700 ± 400 nM.
With `Cc1cn([C@H]2C[C@H](O[C@@H]3O[C@H](CO)[C@@H](O)[C@H]3O)[C@@H](CO)O2)c(=O)[nH]c1=O` [Compound 24], the “Inhibitory effect on TDP1 activity (in words)” value on TDP1 [1] is “not inhibited”. Besides, the IC50 in the data set with PARP1 is 38000 ± 4000 nM.

A word on the Ki: it is a dissociation constant, usually derived from enzyme kinetics or from competition with a known ligand.
